≈ marks a conversion by molar mass, not a printed value.
Experiments:
[1] = Stability at 25° C.: total amount of vinflunine-related impurities, pulverulent form vs aqueous solution; assay type: physicochemical
Text: The stability is monitored by observing the changes in the total amount of vinflunine-related impurities present.

[2] = Solubility; conditions: water

| SMILES | increase of the total amount of vinflunine-related impurities ([1]; after storage for 6 months at 25° C.) [%] | % impurity relative to 100% of active principle (total vinflunine-related impurities) ([1]; t0) [%] | % impurity relative to 100% of active principle (total vinflunine-related impurities) ([1]; t3 months, storage at 25° C.) [%] | % impurity relative to 100% of active principle (total vinflunine-related impurities) ([1]; t6 months, storage at 25° C.) [%] | solubility [2] [mg/mL] |
| --- | --- | --- | --- | --- | --- |
| CC[C@]12C=CCN3CC[C@@]4(c5cc([C@@]6(C(=O)OC)CC7CC(C(C)(F)F)CN(Cc8c6[nH]c6ccccc86)C7)c(OC)cc5N(C)[C@H]4C(O)(C(=O)OC)[C@@H]1OC(C)=O)[C@@H]32 (stereo partly drawn) [batch 503, 20′,20′-difluoro-3′,4′-dihyrovinorelbine L(+)-tartrate] | 197 | 1.17 | 2.75 | 3.48 |  |
| CC[C@]12C=CCN3CC[C@@]4(c5cc([C@@]6(C(=O)OC)CC7CC(C(C)(F)F)CN(Cc8c6[nH]c6ccccc86)C7)c(OC)cc5N(C)[C@H]4C(O)(C(=O)OC)[C@@H]1OC(C)=O)[C@@H]32 (stereo partly drawn) [vinflunine, 20′,20′-difluoro-3′,4′-dihydrovinorelbine] |  |  |  |  | 290 to 330 (≈ 355 to 404 mM) |
| CCC1=C[C@@H]2CN(C1)Cc1c([nH]c3ccccc13)[C@@](C(=O)OC)(c1cc3c(cc1OC)N(C)[C@H]1[C@@](O)(C(=O)OC)[C@H](OC(C)=O)[C@]4(CC)C=CCN5CC[C@]31[C@@H]54)C2 [vinorelbine] |  |  |  |  | 1000 (≈ 1280 mM) |

— US20110015221A1, “PHARMACEUTICAL COMPOSITION OF VINFLUNINE WHICH IS INTENDED FOR PARENTERAL ADMINISTRATION PREPARATION METHOD THEREOF AND USE OF SAME” (PIERRE FABRE MEDICAMENT, priority 2003, published 2011)
